This note sets out measurements from ChEMBL document CHEMBL5661943, “ASAP - In vitro antiviral effect” (2024).

The test system of one assay is Zika virus. Nature of the assay: Functional CPE-based assay to measure dose dependent changes in antiviral-drug inhibitory efficacy against Zika virus MR766 in Vero E6 miRFP670 cells (cotreated with P-gp inhibitor, CP100356). Cells are treated with antiviral candidates that are serially diluted. EC50 is reported via analysis of MTS assay as a readout of CPE. The assay has been performed by KU Leuven. Format: organism-based, Chlorocebus sabaeus, Vero C1008. The following applies: Zika virus; for EC90: P-gp concentration 500 nM, P-gp inhibitor CP100356. A general note: Tetrazolium assays rely on reduction of a dye to a coloured formazan, in cell work by metabolically active cells.

The next assay relates to dengue virus type 2. Kind of assay: Functional assay to measure dose dependent changes in antiviral-drug inhibitory efficacy against Dengue virus type 2 New Guinea C in Vero E6 miRFP670 cells (cotreated with P-gp inhibitor, CP100356). Cells are treated with antiviral candidates that are serially diluted, following infection, cells are fixed. EC50 is reported via analysis of fluorescence intensity using high-content imager. The …. Format: organism-based, Chlorocebus sabaeus, Vero C1008. The following applies: Dengue virus; for EC90: P-gp concentration 500 nM, P-gp inhibitor CP100356.

Where only a bound is given, the exact number is not on record here.

Usually EC50 stands for the concentration needed to bring the measured effect to its halfway point. By EC90 is commonly meant the concentration at which the effect reaches the 90% level.

Regarding `N#Cc1cccc(-c2nc3c(C(=O)Nc4ccc5c(c4)CNC5)cc(F)cc3[nH]2)c1`, the EC50 is over 50 µM in the assay with Zika virus (Vero C1008) and over 6.25 µM in the assay with dengue virus type 2 (Vero C1008). Moreover, the EC90 is over 50 µM with Zika virus (Vero C1008, Baseline response 0 %, Hill slope 0.393, Maximum measured 36.291 %, Maximum response 100 %, Minimum measured 0.187 %, R squared 0.325) and over 6.25 µM with dengue virus type 2 (Vero C1008, Baseline response 0 %, Hill slope 1.695, Maximum measured 158.102 %, Maximum response 100 %, Minimum measured 53.067 %, R squared 0.44).

On to `O=C1Cc2c(cccc2C(=O)Nc2ccc3c(c2)CCNCC3)N1`, for which the EC50 with Zika virus (Vero C1008) and in the assay on dengue virus type 2 (Vero C1008) was over 50 µM in each case. Further, the EC90 in the assay with Zika virus (Vero C1008, Maximum measured 3.486 %, Minimum measured -0.899 %) was over 50 µM; with dengue virus type 2 (Vero C1008, Maximum measured 144.677 %, Minimum measured 92.434 %), over 50 µM.

For `COc1cccc(-c2nc3c(C(=O)Nc4ccc5c(c4)CNC5)cc(F)cc3[nH]2)c1`, the 50% effective concentration (EC50) with Zika virus (Vero C1008) and in the assay on dengue virus type 2 (Vero C1008) was over 50 µM in each case. The EC90 with Zika virus (Vero C1008, Baseline response 0 %, Hill slope -1.02, Maximum measured 11.362 %, Maximum response 100 %, Minimum measured -3.329 %, R squared 0.203) is over 50 µM; with dengue virus type 2 (Vero C1008, Maximum measured 205.039 %, Minimum measured 143.371 %) it was over 50 µM.

In the case of `O=C(Nc1cnc2c(c1)CNC2)c1cc(F)cc2[nH]ncc12`, the half-maximal effective concentration (EC50) in the assay with Zika virus (Vero C1008) and with dengue virus type 2 (Vero C1008) was over 50 µM each time. The EC90 with Zika virus (Vero C1008, Baseline response 0 %, Hill slope 2.313, Maximum measured 10.311 %, Maximum response 100 %, Minimum measured -0.319 %, R squared 0.353) is over 50 µM; in the assay on dengue virus type 2 (Vero C1008, Maximum measured 142.482 %, Minimum measured 85.178 %), over 50 µM.

Consider `O=C1Nc2ccc(C(=O)Nc3ccc4c(c3)CNC4)cc2C1=O`, for which the EC50 with Zika virus (Vero C1008) and with dengue virus type 2 (Vero C1008) was over 50 µM each time. For the same compound, the EC90 is over 50 µM with Zika virus (Vero C1008, Baseline response 0 %, Hill slope 1.301, Maximum measured 24.355 %, Maximum response 100 %, Minimum measured -0.531 %, R squared 0.91) and over 50 µM in the assay with dengue virus type 2 (Vero C1008, Maximum measured 138.129 %, Minimum measured 92.792 %).

For `COc1ccccc1-c1nc2c(C(=O)Nc3ccc4c(c3)CNC4)cc(F)cc2[nH]1`, the EC50 in the assay with Zika virus (Vero C1008) is over 50 µM; in the assay with dengue virus type 2 (Vero C1008), over 12.5 µM. Further, the EC90 in the assay on Zika virus (Vero C1008, Baseline response 0 %, Hill slope 1.211, Maximum measured 45.367 %, Maximum response 100 %, Minimum measured -3.491 %, R squared 0.953) is over 50 µM; in the assay with dengue virus type 2 (Vero C1008, Baseline response 0 %, Hill slope -1.284, Maximum measured 263.72 %, Maximum response 267.598 %, Minimum measured 165.032 %, R squared 0.972), over 12.5 µM.

As for `O=C(Nc1ccc2c(c1)CNC2)c1cc(F)cc2[nH]c(-c3cccc(F)c3)nc12`, the values for the EC50 in the assay on Zika virus (Vero C1008) and in the assay on dengue virus type 2 (Vero C1008) were over 50 µM and over 1.56 µM, respectively. Moreover, the EC90 in the assay on Zika virus (Vero C1008, Baseline response 0 %, Hill slope 2.278, Maximum measured 12.458 %, Maximum response 100 %, Minimum measured -7.568 %, R squared 0.376) was over 50 µM; in the assay on dengue virus type 2 (Vero C1008, Baseline response 0 %, Hill slope -0.435, Maximum measured 206.615 %, Maximum response 236.845 %, Minimum measured 186.851 %, R squared 0.182), over 1.56 µM.

As for `N#Cc1cc2c(cc1NC(=O)c1cc(F)cc3[nH]ncc13)CNC2`, the EC50 is 2.09 µM in the assay on Zika virus (Vero C1008) and over 25 µM in the assay with dengue virus type 2 (Vero C1008). The EC90 in the assay on Zika virus (Vero C1008, Baseline response 0 %, EC90 CI (lower) 2.64 uM, EC90 CI (upper) 7.54 uM, Hill slope 2.894, Maximum measured 123.396 %, Maximum response 100 %, Minimum measured 1.493 %, R squared 0.93) was 4.46 µM; with dengue virus type 2 (Vero C1008, Maximum measured 167.339 %, Minimum measured 79.168 %) it was over 25 µM.

In the case of `Cc1cccc(-c2nc3c(C(=O)Nc4ccc5c(c4)CNC5)cc(F)cc3[nH]2)c1`, the EC50 with Zika virus (Vero C1008) and in the assay on dengue virus type 2 (Vero C1008) was over 50 µM in each case. Also, the EC90 with Zika virus (Vero C1008, Maximum measured 1.316 %, Minimum measured -3.721 %) was over 50 µM; in the assay on dengue virus type 2 (Vero C1008, Maximum measured 188.282 %, Minimum measured 128.713 %) it was over 50 µM.

Consider `O=C(Nc1ccc2c(c1)CNC2)c1ccc2c(C3=CCNCC3)csc2c1`, for which the EC50 with Zika virus (Vero C1008) was determined as 9.31 µM; in the assay with dengue virus type 2 (Vero C1008), 1.33 µM. The EC90 with Zika virus (Vero C1008, Baseline response 0 %, Hill slope 1.989, Maximum measured 64.405 %, Maximum response 100 %, Minimum measured 3.372 %, R squared 0.951) is over 12.5 µM; in the assay with dengue virus type 2 (Vero C1008, Baseline response 0 %, Hill slope -1.321, Maximum measured 86.909 %, Maximum response 100 %, Minimum measured 20.548 %, R squared 0.914), over 6.25 µM.

With `NCc1ccc(-c2csc3cc(C(=O)Nc4ccc5c(c4)CNC5)ccc23)cc1`, the EC50 in the assay with Zika virus (Vero C1008) was over 50 µM; with dengue virus type 2 (Vero C1008), over 6.25 µM. Further, the 90% effect concentration (EC90) in the assay on Zika virus (Vero C1008, Maximum measured 6.518 %, Minimum measured 2.745 %) was over 50 µM; in the assay on dengue virus type 2 (Vero C1008, Baseline response 0 %, Hill slope -0.794, Maximum measured 120.176 %, Maximum response 100 %, Minimum measured 78.099 %, R squared 0.152) it was over 6.25 µM.

Regarding `Cc1ccc(-c2nc3c(C(=O)Nc4ccc5c(c4)CNC5)cc(F)cc3[nH]2)cc1`, the EC50 in the assay on Zika virus (Vero C1008) and in the assay with dengue virus type 2 (Vero C1008) was over 50 µM each time. Also, the EC90 in the assay with Zika virus (Vero C1008, Baseline response 0 %, Hill slope 1.828, Maximum measured 11.314 %, Maximum response 100 %, Minimum measured -7.525 %, R squared 0.394) is over 50 µM; in the assay on dengue virus type 2 (Vero C1008, Baseline response 0 %, Hill slope -1.93, Maximum measured 263.734 %, Maximum response 225.04 %, Minimum measured 80.528 %, R squared 0.789), over 50 µM.

Take `NCc1csc2cc(C(=O)Nc3ccc4c(c3)CNC4)ccc12`: the 50% effective concentration (EC50) with Zika virus (Vero C1008) and in the assay on dengue virus type 2 (Vero C1008) was over 50 µM each time. In addition, the EC90 in the assay with Zika virus (Vero C1008, Baseline response 0 %, Hill slope 0.999, Maximum measured 5.799 %, Maximum response 100 %, Minimum measured -1.302 %, R squared 0.306) is over 50 µM; in the assay on dengue virus type 2 (Vero C1008, Maximum measured 124.572 %, Minimum measured 93.265 %), over 50 µM.

`O=C(Nc1ccc2c(c1)CNC2)c1cccc2c(C3CNC3)n[nH]c12`: the half-maximal effective concentration (EC50) with Zika virus (Vero C1008) is 9.06 µM; in the assay on dengue virus type 2 (Vero C1008) it was over 50 µM. Besides, the EC90 with Zika virus (Vero C1008, Baseline response 0 %, EC90 CI (lower) 13.229 uM, EC90 CI (upper) 28.268 uM, Hill slope 2.896, Maximum measured 113.87 %, Maximum response 100 %, Minimum measured -0.433 %, R squared 0.955) was 19.3 µM; in the assay with dengue virus type 2 (Vero C1008, Maximum measured 103.764 %, Minimum measured 75.286 %), over 50 µM.

In the case of `O=C(Nc1ccc2c(c1)CNC2)c1cc(F)cc2[nH]c(-c3ccc(F)cc3)nc12`, the 50% effective concentration (EC50) with Zika virus (Vero C1008) and with dengue virus type 2 (Vero C1008) was over 50 µM in each case. Also, the EC90 was over 50 µM in the assay with Zika virus (Vero C1008, Baseline response 0 %, Hill slope 2.324, Maximum measured 27.659 %, Maximum response 100 %, Minimum measured -7.999 %, R squared 0.219) and over 50 µM in the assay with dengue virus type 2 (Vero C1008, Maximum measured 176.058 %, Minimum measured 96.502 %).

`O=C(Nc1cc2c(c(C3=CCS(=O)(=O)CC3)c1)CNC2)c1cc(F)cc2[nH]ncc12`: the EC50 with Zika virus (Vero C1008) was over 50 µM; in the assay with dengue virus type 2 (Vero C1008), over 25 µM. Further, the EC90 with Zika virus (Vero C1008, Maximum measured 6.141 %, Minimum measured -2.074 %) is over 50 µM; in the assay on dengue virus type 2 (Vero C1008, Maximum measured 118.058 %, Minimum measured 98.99 %), over 25 µM.

On to `N[C@H]1Cc2ccc(NC(=O)c3cccc4c3CC(=O)N4)cc2C1`, for which the EC50 in the assay with Zika virus (Vero C1008) and with dengue virus type 2 (Vero C1008) was over 50 µM each time. Besides, the EC90 is over 50 µM with Zika virus (Vero C1008, Maximum measured 1.094 %, Minimum measured -1.183 %) and over 50 µM with dengue virus type 2 (Vero C1008, Maximum measured 137.168 %, Minimum measured 87.065 %).
